Data published in patent US20210346359A1, “Use of CFTR Modulators For Treating Cerebrovascular Conditions” (Qanatpharma AG, priority 2018, published 2021).
“Also recorded” adds a separate entry of the source.

Experiments:
[1] = test system: mice with subarachnoid hemorrhage; assay: MRI (FAIR) cerebral blood flow in subarachnoid hemorrhage mice; format: in vivo, mouse; settings: SAH mice, 3 mg/kg daily for 2 days
Description: As described previously (10-12), we utilized a flow-sensitive alternating inversion recovery (FAIR) magnetic resonance imaging (MRI) technique (13) to evaluate cerebral blood flow (CBF). During imaging, mice were immobilized with 1.8% isoflurane delivered through a nose cone. To maintain body temperature, the MRI is equipped with embedded tubes that convect water from an external heater-pump. Respiration was monitored using a pneumatic pillow (SA Instruments, Stonybrook, USA); isoflurane levels were adjusted to maintain respiration at approximately 50 breaths/minute.
FAIR images were obtained using a 7 Tesla micro-MRI system (BioSpec 70/30 USR, Bruker BioSpin, Ettlingen, Germany), including the B-GA12 gradient insert, 72 mm inner diameter linear volume resonator for RF transmission, and anteriorly placed head coil for RF reception. […] FAIR images were evaluated by manual prescription (MIPAV, NIH, Bethesda, MD; http://mipav.cit.nih.gov) of sub-hemispheric regions-of-interest (ROIs), termed ‘global’, and local ROIs corresponding to cortical and sub-cortical parenchyma in forebrain sections; cortical and paraventricular parenchyma in middle sections; and cortical and midbrain parenchyma in hindbrain sections. […]

[2] = target: CFTR (Mus musculus, UniProt P26361); assay: CFTR protein in cerebral arteries of mice with subarachnoid hemorrhage; format: in vivo; parameters: Cerebral artery lysates were prepared by grinding artery samples in lysis buffer; from tissue; host or cells: cerebral arteries of male wild-type C57BL/6N mice (naïve, heart failure or subarachnoid hemorrhage models); settings: 2 days post-induction, 3 mg/kg daily for 2 days
Sequence of CFTR (P26361 whole entry): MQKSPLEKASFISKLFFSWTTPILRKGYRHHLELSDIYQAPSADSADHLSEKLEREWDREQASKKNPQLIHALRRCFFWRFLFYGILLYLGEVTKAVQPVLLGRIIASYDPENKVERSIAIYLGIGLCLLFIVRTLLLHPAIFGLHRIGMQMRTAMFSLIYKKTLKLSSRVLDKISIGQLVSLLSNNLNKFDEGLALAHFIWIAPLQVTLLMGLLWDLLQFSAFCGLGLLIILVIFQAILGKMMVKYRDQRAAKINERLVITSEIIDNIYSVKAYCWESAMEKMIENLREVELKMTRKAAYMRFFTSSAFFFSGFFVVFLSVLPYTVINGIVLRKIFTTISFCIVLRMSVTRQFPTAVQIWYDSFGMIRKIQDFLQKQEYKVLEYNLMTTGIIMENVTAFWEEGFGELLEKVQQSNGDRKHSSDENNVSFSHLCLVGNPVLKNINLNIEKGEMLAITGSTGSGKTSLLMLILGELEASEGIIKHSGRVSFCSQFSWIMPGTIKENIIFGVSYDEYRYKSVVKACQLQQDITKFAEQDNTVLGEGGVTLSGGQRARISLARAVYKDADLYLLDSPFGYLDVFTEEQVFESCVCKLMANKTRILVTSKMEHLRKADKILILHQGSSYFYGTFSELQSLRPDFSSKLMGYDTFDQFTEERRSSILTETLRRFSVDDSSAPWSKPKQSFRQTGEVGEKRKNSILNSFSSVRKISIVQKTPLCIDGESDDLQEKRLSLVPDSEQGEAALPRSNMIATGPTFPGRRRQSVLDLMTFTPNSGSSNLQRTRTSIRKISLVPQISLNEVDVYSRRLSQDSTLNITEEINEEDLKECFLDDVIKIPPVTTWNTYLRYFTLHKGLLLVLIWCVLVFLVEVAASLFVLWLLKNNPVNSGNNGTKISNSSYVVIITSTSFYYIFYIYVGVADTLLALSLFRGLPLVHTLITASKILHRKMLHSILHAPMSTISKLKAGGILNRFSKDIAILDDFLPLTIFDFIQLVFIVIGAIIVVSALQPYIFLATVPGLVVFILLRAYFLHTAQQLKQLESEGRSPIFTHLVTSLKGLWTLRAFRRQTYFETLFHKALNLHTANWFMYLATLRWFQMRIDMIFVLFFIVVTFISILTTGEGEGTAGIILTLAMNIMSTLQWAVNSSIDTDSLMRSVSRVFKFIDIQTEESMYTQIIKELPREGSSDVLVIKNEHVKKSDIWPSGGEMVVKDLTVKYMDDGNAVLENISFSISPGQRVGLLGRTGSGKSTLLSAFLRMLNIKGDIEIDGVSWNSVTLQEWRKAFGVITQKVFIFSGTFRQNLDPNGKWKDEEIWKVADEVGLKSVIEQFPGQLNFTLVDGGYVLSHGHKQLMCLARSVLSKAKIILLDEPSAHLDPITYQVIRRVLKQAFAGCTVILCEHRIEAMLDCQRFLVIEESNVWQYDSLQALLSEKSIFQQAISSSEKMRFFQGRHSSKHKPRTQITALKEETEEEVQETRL
Protocol: Western blots for CFTR were completed as previously described (12, 18). Cerebral artery lysates were prepared by grinding artery samples in lysis buffer containing 50 mM Tris (pH 7.3), 150 mM NaCl, 2 mM […], 0.1% Triton-X-100, 0.1% […] and protease inhibitors; the same lysis buffer was used to prepare cell culture lysates. Following lysis, the samples were centrifuged (10 minutes at 13,500 g; at 4° C.) to remove insoluble material. Immediately prior to polyacrylamide electrophoresis, additional SDS (to 2% final concentration), glycerol (to 2% final concentration), β-mercaptoethanol (to 2% final concentration) and dithiothreitol (2 mM final concentration) were added. Proteins were separated electrophoretically on 7% acrylamide gels and transferred onto polyvinylidene difluoride (PVDF) membranes. […]
The primary antibodies were conjugated with either peroxidase-labeled donkey anti-rabbit IgG (GE Healthcare Amersham (Piscataway, USA) cat# NA934) or peroxidase-labeled goat anti-mouse IgG (GE Healthcare Amersham cat# NA931) secondary antibodies. […] Developed films were evaluated densitometrically using “Image J” software (freely available from the NIH); digital images were evaluated with Image Lab software (Bio-Rad). […]

| SMILES | cerebral blood flow / cerebral perfusion [1] | cerebral artery CFTR protein expression in SAH [2] |
| --- | --- | --- |
| O=C(Nc1ncc(C(c2ccccc2Cl)N2CCC(O)C2)s1)C1(c2ccc3c(c2)OCO3)CC1 (stereo not shown) [C18, 1-(benzo[d][1,3]dioxol-5-yl)-N-(5-((2-chlorophenyl)(3-hydroxypyrrolidin-1-yl)methyl)thiazol-2-yl)cyclopropanecarboxamide] | restores; also recorded: significantly improves | restores; also recorded: eliminates this reduction |
| Cc1ccc(NC(=O)C2(c3ccc4c(c3)OC(F)(F)O4)CC2)nc1-c1cccc(C(=O)O)c1 [lumacaftor] | normalizes; also recorded: significantly improves | restores; also recorded: eliminates this reduction |
